Data on 20 compounds can be found in US20250206718A1, “NITROGEN-CONTAINING HETEROCYCLIC DERIVATIVE INHIBITOR, PREPARATION METHOD THEREFOR AND USE THEREOF” (SHANGHAI HANSOH BIOMEDICAL CO., LTD., priority 2022, published 2025).

The target of this experiment is Ba/F3 EGFR Del19/C797S cells (Homo sapiens, UniProt P00533, C797S, cells depend on it, form not given). Kind of experiment: Cell proliferation inhibition (Cell Titer-Glo), Ba/F3 EGFR Del19/C797S. The format is cell-based, mouse. As to conditions: 72 hours, CellTiter-Glo, read-out: Ba/F3 EGFR Del19/C797S IC50. An excerpt: Experimental objective: The objective of this test example is to test the inhibitory activity of compounds on the proliferation of different EGFR C797S drug-resistant mutant cell lines Ba/F3 EGFR Del19/T790M/C797S, Ba/F3 EGFR L858R/T790M/C797S, and Ba/F3 EGFR Del19/C797S.
Chain of Ba/F3 EGFR Del19/C797S cells (P00533 with tags, fused parts or gaps DEL746-750/C797S, form open): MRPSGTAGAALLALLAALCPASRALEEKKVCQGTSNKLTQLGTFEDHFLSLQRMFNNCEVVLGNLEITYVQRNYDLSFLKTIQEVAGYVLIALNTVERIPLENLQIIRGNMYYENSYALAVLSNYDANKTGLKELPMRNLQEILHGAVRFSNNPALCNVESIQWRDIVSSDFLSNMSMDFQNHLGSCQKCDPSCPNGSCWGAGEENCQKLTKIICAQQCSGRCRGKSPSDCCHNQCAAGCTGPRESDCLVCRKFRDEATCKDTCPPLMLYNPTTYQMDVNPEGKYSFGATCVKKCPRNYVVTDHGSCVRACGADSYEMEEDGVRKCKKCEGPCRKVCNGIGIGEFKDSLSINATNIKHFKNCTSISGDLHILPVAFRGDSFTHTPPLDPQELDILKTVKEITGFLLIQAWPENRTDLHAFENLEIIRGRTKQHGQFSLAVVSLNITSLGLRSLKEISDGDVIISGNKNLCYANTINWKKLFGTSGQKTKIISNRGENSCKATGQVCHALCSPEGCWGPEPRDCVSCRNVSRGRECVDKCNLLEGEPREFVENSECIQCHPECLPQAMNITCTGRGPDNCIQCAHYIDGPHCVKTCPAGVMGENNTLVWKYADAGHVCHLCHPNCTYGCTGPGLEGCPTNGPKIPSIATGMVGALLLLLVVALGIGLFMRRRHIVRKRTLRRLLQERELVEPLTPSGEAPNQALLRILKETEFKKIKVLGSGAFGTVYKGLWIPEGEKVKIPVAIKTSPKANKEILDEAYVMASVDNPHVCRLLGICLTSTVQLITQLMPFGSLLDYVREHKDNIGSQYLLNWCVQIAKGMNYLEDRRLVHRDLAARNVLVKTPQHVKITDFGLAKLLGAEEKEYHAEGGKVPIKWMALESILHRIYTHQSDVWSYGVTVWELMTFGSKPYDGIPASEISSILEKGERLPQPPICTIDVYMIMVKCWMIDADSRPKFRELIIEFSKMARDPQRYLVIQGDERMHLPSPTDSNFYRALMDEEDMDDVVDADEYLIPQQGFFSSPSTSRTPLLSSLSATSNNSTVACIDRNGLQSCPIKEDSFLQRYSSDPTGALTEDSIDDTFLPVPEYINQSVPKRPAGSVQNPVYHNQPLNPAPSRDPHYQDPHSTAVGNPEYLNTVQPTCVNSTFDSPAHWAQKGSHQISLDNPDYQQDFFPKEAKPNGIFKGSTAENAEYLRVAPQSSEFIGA
• Ba/F3 EGFR Del19/T790M/C797S cells were purchased from KYinno Biotechnology Co., Ltd.; • Ba/F3 EGFR Del19/C797S cells were purchased from CoBioer Biosciences Co., Ltd.; • Ba/F3 EGFR L858R/T790M/C797S cells were purchased from CoBioer Biosciences Co., Ltd.; • Cell Titer-Glo was purchased from Promega, with a catalog number of G7573; • RPMI 1640 was purchased from Gibco, with a catalog number of 22400089; • FBS was purchased from Gibco, with a catalog number of 10091148; • cell culture plates were purchased from Corning, with a catalog number of 3610.
The inhibitory activity of the compound on the proliferation of different EGFR C797S drug-resistant mutant cell lines was detected using the Cell Titer-Glo method. The different cell lines were cultured in RPMI 1640 complete culture medium containing 10% FBS under conditions of 37° C. and 5% CO2, the cells were collected by centrifugation when growing to a certain density, and adjusted to appropriate cell density after counting, the cells were spread on a white 96-well plate at 90 μL/well, and cultured in a 37° C., 5% CO2 incubator overnight, prepared compound solutions of different concentrations were added at 10 μL/well, corresponding solvent controls were set, and all wells were cultured in a 37° C., 5% CO2 incubator for 72 hours, 50 μL of CellTiter-Glo solution was added to each well, shook and mixed evenly, and incubated in the dark for 10 minutes, and a BioTek Synergy H1 microplate reader was used for reading.
The luminescence signal value was used to calculate the inhibition rate. Graphpad Prism software was used to fit the concentration and inhibition rate to a nonlinear regression curve, so as to obtain the IC50 value, as shown in the Table below for details.
On to `CC(C)c1ccc(N2C[C@H](CS(C)(=O)=O)[C@H]2C)c2cnc(Nc3ccnc(-c4cn(C5CC5)nc4F)n3)cc12` [Example 9, N-(2-(1-cyclopropyl-3-fluoro-1H-pyrazol-4-yl)pyrimidin-4-yl)-5-isopropyl-8-((2R,3S)-2-methyl-3-((methylsulfonyl)methyl)azetidin-1-yl)isoquinolin-3-amine], for which the GI50 stood at 57 nM.
With `CC(C)c1ncc(N2C[C@H](N(C)S(C)(=O)=O)[C@H]2C)c2cnc(Nc3ccnc(-c4cn(C)nc4Cl)n3)cc12` [Example 59, N-((2R,3S)-1-(7-((2-(3-chloro-1-methyl-1H-pyrazol-4-yl)pyrimidin-4-yl)amino)-1-isopropyl-2,6-diazanaphthalen-4-yl)-2-methylazetidin-3-yl)-N-methyl methanesulfonamide] the figure was 5 nM; with `Cc1nn(C)cc1-c1nccc(Nc2cc3c(C(C)C)ncc(N4CC(N(C)S(C)(=O)=O)C4)c3cn2)n1` [Example 60, N-(1-(7-((2-(1,3-dimethyl-1H-pyrazol-4-yl)pyrimidin-4-yl)amino)-1-isopropyl-2,6-diazanaphthalen-4-yl)azetidin-3-yl)-N-methyl methanesulfonamide], 5.6 nM.
Next, `Cc1nn(C)cc1-c1nccc(Nc2cc3c(C(C)C)ncc(N4C[C@H](N(C)S(C)(=O)=O)[C@H]4C)c3cn2)n1` [Example 61, N-((2R,3S)-1-(7-((2-(1,3-dimethyl-1H-pyrazol-4-yl)pyrimidin-4-yl)amino)-1-isopropyl-2,6-diazanaphthalen-4-yl)-2-methylazetidin-3-yl)-N-methyl methanesulfonamide]: 6 nM; `Cc1nn(C)cc1-c1nccc(Nc2cc3c(C(C)C)ccc(N4CC(N(C)S(C)(=O)=O)C4)c3cn2)n1` [Example 71, N-(1-(3-((2-(1,3-dimethyl-1H-pyrazol-4-yl)pyrimidin-4-yl)amino)-5-isopropylisoquinolin-8-yl)azetidin-3-yl)-N-methyl methanesulfonamide]: 17 nM; `CC(C)c1ccc(N2CC(N=S(C)(C)=O)C2)c2cnc(Nc3ccnc(-c4cn(C)nc4Cl)n3)cc12` [Example 102, ((1-(3-((2-(3-chloro-1-methyl-1H-pyrazol-4-yl)pyrimidin-4-yl)amino)-5-isopropylisoquinolin-8-yl)azetidin-3-yl)imino)dimethyl-16-sulfanone]: 73 nM.
For `CC(C)c1ccc(N2C[C@H](N3CCOC3=O)[C@H]2C)c2cnc(Nc3ccnc(-c4cn(C)nc4Cl)n3)cc12` [Example 109, 3-((2R,3S)-1-(3-((2-(3-chloro-1-methyl-1H-pyrazol-4-yl)pyrimidin-4-yl)amino)-5-isopropylisoquinolin-8-yl)-2-methylazetidin-3-yl)oxazolidin-2-one], the GI50 turned out to be 14 nM.
`CC(C)c1ccc(N2C[C@H](CS(C)(=O)=O)[C@H]2C)c2cnc(Nc3ccnc(-c4cn(C(C)(C)C#N)nc4Cl)n3)cc12` [Example 112, 2-(3-chloro-4-(4-((5-isopropyl-8-((2R,3S)-2-methyl-3-((methanesulfonyl)methyl)azetidin-1-yl)isoquinolin-3-yl)amino)pyrimidin-2-yl)-1H-pyrazol-1-yl)-2-methylpropanenitrile]: the GI50 is 52 nM.
With `CC(C)c1ccc(N2C[C@H](CS(C)(=O)=O)[C@H]2C)c2cnc(Nc3ccnc(-c4cn(CC(O)C(F)(F)F)nc4Cl)n3)cc12` (stereo partly drawn) [Example 113, 3-(3-chloro-4-(4-((5-isopropyl-8-((2R,3S)-2-methyl-3-((methanesulfonyl)methyl)azetidin-1-yl)isoquinolin-3-yl)amino)pyrimidin-2-yl)-1H-pyrazol-1-yl)-1,1,1-trifluoropropan-2-ol] the figure was 60 nM.
On to `CC(=O)Cn1cc(-c2nccc(Nc3cc4c(C(C)C)ccc(N5C[C@H](CS(C)(=O)=O)[C@H]5C)c4cn3)n2)c(Cl)n1` [Example 114, 1-(3-chloro-4-(4-((5-isopropyl-8-((2R,3S)-2-methyl-3-((methanesulfonyl)methyl)azetidin-1-yl)isoquinolin-3-yl)amino)pyrimidin-2-yl)-1H-pyrazol-1-yl)propan-2-one], for which the GI50 was 39 nM.
Next, `CC(C)c1ccc(N2C[C@H](CS(C)(=O)=O)[C@H]2C)c2cnc(Nc3ccnc(-c4cn(C(C)C#N)nc4Cl)n3)cc12` (stereo partly drawn) [Example 115, 2-(3-chloro-4-(4-((5-isopropyl-8-((2R,3S)-2-methyl-3-((methanesulfonyl)methyl)azetidin-1-yl)isoquinolin-3-yl)amino)pyrimidin-2-yl)-1H-pyrazol-1-yl)propanenitrile]: 73 nM; `CC(C)c1c(F)cc(N2CC(N(C)S(C)(=O)=O)C2)c2cnc(Nc3ccnc(-c4cn(C)nc4Cl)n3)cc12` [Example 124, N-(1-(3-((2-(3-chloro-1-methyl-1H-pyrazol-4-yl)pyrimidin-4-yl)amino)-6-fluoro-5-isopropylisoquinolin-8-yl)azetidin-3-yl)-N-methyl methanesulfonamide]: 14 nM; `Cc1nn(C)cc1-c1nccc(Nc2cc3c(C(C)C)c(F)cc(N4CC(N(C)S(C)(=O)=O)C4)c3cn2)n1` [Example 129, N-(1-(3-((2-(1,3-dimethyl-1H-pyrazol-4-yl)pyrimidin-4-yl)amino)-6-fluoro-5-isopropylisoquinolin-8-yl)azetidin-3-yl)-N-methyl methanesulfonamide]: 22 nM.
Next, `CC(C)c1ncc(N2CC(N(C)S(C)(=O)=O)C2)c2cnc(Nc3ccnc(-c4cn(C)nc4Cl)n3)cc12` [Example 131, N-(1-(7-((2-(3-chloro-1-methyl-1H-pyrazol-4-yl)pyrimidin-4-yl)amino)-1-isopropyl-2,6-diazanaphthalen-4-yl)azetidin-3-yl)-N-methyl methanesulfonamide]: 7.4 nM.
As to `CC(C)c1ncc(N2C[C@H](CS(C)(=O)=O)[C@H]2C)c2cnc(Nc3ccnc(-c4cn(C)nc4Cl)n3)cc12` [Example 133, N-(2-(3-chloro-1-methyl-1H-pyrazol-4-yl)pyrimidin-4-yl)-5-isopropyl-8-((2R,3S)-2-methyl-3-((methanesulfonyl)methyl)azetidin-1-yl)-2,6-diazanaphthalen-3-amine], the GI50 was found to be 27 nM.
For the compound `CC(C)c1ccc(N2C[C@H](CS(C)(=O)=O)[C@H]2C)c2cnc(Nc3ccnc(-c4cn(C5CC6(COC6)C5)nc4Cl)n3)cc12` [Example 141, N-(2-(3-chloro-1-(2-oxaspiro[3.3]heptan-6-yl)-1H-pyrazol-4-yl)pyrimidin-4-yl)-5-isopropyl-8-((2R,3S)-2-methyl-3-((methanesulfonyl)methyl)azetidin-1-yl)isoquinolin-3-amine], the GI50 stood at 64 nM.
Take `CC(C)c1ccc(N2C[C@H](CS(C)(=O)=O)[C@H]2C)c2cnc(Nc3ccnc(-c4cn([C@H]5CCOC5)nc4Cl)n3)cc12` [Example 142, N-(2-(3-chloro-1-((S)-tetrahydrofuran-3-yl)-1H-pyrazol-4-yl)pyrimidin-4-yl)-5-isopropyl-8-((2R,3S)-2-methyl-3-((methanesulfonyl)methyl)azetidin-1-yl)isoquinolin-3-amine]: the GI50 came out at 41 nM.
With `CC(C)c1ccc(N2C[C@H](CS(C)(=O)=O)[C@H]2C)c2cnc(Nc3ccnc(-c4cn([C@@H]5CCOC5)nc4Cl)n3)cc12` [Example 143, N-(2-(3-chloro-1-((R)-tetrahydrofuran-3-yl)-1H-pyrazol-4-yl)pyrimidin-4-yl)-5-isopropyl-8-((2R,3S)-2-methyl-3-((methanesulfonyl)methyl)azetidin-1-yl)isoquinolin-3-amine] the figure was 30 nM.
As to `CC(C)c1ccc(N2C[C@H](CS(C)(=O)=O)[C@H]2C)c2cnc(Nc3ccnc(-c4cn(C[C@H]5CCCO5)nc4Cl)n3)cc12` [Example 144, N-(2-(3-chloro-1-(((R)-tetrahydrofuran-2-yl)methyl)-1H-pyrazol-4-yl)pyrimidin-4-yl)-5-isopropyl-8-((2R,3S)-2-methyl-3-((methanesulfonyl)methyl)azetidin-1-yl)isoquinolin-3-amine], the GI50 turned out to be 26 nM.
In the case of `CC(C)c1ccc(N2C[C@H](CS(C)(=O)=O)[C@H]2C)c2cnc(Nc3ccnc(-c4cn(C[C@@H]5CCCO5)nc4Cl)n3)cc12` [Example 145, N-(2-(3-chloro-1-(((S)-tetrahydrofuran-2-yl)methyl)-1H-pyrazol-4-yl)pyrimidin-4-yl)-5-isopropyl-8-((2R,3S)-2-methyl-3-((methanesulfonyl)methyl)azetidin-1-yl)isoquinolin-3-amine], the GI50 worked out at 45 nM.
